The source made the active and inactive calls. The calls are words filed in the database; no cut-off is given here.
What was measured:
[1] = target: T1, Free fatty acid receptor 1 (Homo sapiens, UniProt O14842); assay: Agonist activity at human GPR40 expressed in CHO cells by aequorin assay; assay type: cell-based
[2] = Mean residence time in rat; assay type: ADME, organism-based; settings: in vivo
[3] = Oral bioavailability in rat at 2 mg/kg; assay type: ADME, organism-based; settings: in vivo
[4] = Volume of distribution at steady state in rat; assay type: ADME, organism-based; settings: in vivo, read-out: Vdss
[5] = Clearance in rat at 0.5 mg/kg, iv; assay type: ADME, organism-based; parameters: dose 0.5 mg/kg, route intravenous; settings: in vivo
[6] = target: T1, Free fatty acid receptor 1; assay: Agonist activity at human GPR40 expressed in mouse A9 cells by inositol phosphate accumulation assay; assay type: functional, cell-based
[7] = Half life in dog; assay type: ADME, organism-based, Canis lupus familiaris; settings: in vivo
[8] = Half life in cynomolgus monkey; assay type: ADME, organism-based, Macaca fascicularis; settings: in vivo
[9] = Oral bioavailability in cynomolgus monkey at 2 mg/kg; assay type: ADME, organism-based, Macaca fascicularis; settings: in vivo
[10] = Inhibition of CYP450 (unknown origin); assay type: ADME; settings: human
[11] = Induction of CYP450 (unknown origin); assay type: ADME; settings: human
[12] = target: Voltage-gated inwardly rectifying potassium channel KCNH2 (Homo sapiens, UniProt Q12809); assay: Inhibition of human ERG
[13] = Volume of distribution at steady state in dog; assay type: ADME, organism-based, Canis lupus familiaris; settings: in vivo, read-out: Vdss
[14] = Half life in rat; assay type: ADME, organism-based; settings: in vivo
[15] = test system: Mus musculus; assay: Antidiabetic activity in human GPR40 knock-in mouse assessed as reduction in glucose AUC at 10 mg/kg, po administered via gavage 1 hr before glucose challenge by oral glucose tolerance test; assay type: functional
[16] = Ratio of drug level in brain to plasma in rat at 5 mg/kg, po after 3 hrs; assay type: ADME, organism-based; parameters: dose 5 mg/kg, route oral; settings: brain and plasma, read-out: BPR
[17] = Plasma concentration in mouse at 1 mg/kg, po measured for 4 hrs; assay type: ADME, organism-based; parameters: dose 1 mg/kg, route oral
[18] = test system: Mus musculus; assay: Antidiabetic activity in human GPR40 knock-in mouse assessed as reduction in blood glucose level at 10 mg/kg, po administered via gavage 1 hr before glucose challenge by oral glucose tolerance test; assay type: functional, organism-based; parameters: dose 10 mg/kg
[19] = Volume of distribution at steady state in cynomolgus monkey; assay type: ADME, organism-based, Macaca fascicularis; settings: in vivo, read-out: Vdss
[20] = test system: Plasma; assay: […] in mouse plasma at 1 mg/kg, po; assay type: ADME, organism-based; parameters: dose 1 mg/kg, route oral; settings: in vivo
[21] = test system: Islets of langerhans; assay: Induction of insulin secretion in human GPR40 knock-in mouse pancreatic islets
[22] = Oral bioavailability in dog at 2 mg/kg; assay type: ADME, organism-based, Canis lupus familiaris; settings: in vivo

T1 sequence (O14842 whole entry): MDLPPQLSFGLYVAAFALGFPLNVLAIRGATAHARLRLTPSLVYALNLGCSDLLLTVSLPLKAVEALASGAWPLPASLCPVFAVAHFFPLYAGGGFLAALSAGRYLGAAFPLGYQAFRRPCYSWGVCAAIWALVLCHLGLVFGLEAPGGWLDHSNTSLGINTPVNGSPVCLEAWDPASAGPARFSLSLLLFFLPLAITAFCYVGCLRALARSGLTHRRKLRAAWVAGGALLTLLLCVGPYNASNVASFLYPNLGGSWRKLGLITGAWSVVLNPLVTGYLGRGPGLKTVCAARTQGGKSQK
Chain of Voltage-gated inwardly rectifying potassium channel KCNH2 (Q12809 whole entry): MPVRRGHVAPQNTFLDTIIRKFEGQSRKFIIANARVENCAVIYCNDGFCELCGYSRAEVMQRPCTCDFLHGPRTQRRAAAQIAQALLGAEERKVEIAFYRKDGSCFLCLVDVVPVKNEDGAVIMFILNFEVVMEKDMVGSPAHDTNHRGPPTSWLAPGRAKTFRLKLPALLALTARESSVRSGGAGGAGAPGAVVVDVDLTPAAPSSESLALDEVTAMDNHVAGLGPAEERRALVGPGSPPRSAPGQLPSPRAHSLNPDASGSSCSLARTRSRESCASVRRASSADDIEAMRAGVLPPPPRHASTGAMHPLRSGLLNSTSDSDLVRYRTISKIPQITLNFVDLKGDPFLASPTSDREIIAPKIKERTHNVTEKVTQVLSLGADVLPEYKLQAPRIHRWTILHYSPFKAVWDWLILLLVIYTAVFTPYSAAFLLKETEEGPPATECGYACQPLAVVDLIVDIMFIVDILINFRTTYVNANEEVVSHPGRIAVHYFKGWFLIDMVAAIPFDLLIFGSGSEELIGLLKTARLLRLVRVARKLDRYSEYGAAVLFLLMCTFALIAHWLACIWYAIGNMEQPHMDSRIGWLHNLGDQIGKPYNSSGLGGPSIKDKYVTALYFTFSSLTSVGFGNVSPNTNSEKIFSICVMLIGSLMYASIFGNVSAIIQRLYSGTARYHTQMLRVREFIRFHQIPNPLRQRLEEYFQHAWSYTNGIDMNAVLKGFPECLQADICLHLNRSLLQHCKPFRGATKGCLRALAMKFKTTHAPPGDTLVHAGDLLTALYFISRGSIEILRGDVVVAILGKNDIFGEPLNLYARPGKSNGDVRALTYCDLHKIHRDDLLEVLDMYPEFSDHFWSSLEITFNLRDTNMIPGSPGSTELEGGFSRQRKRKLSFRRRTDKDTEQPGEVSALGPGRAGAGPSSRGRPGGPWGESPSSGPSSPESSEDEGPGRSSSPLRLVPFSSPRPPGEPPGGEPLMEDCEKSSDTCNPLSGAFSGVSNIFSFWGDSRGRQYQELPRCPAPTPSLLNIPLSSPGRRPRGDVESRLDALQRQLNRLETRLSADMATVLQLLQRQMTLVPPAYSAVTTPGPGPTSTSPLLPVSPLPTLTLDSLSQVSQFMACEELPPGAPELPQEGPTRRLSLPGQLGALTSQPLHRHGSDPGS

| EC50 [1] [µM] | MRT [2] [h] | bioavailability [3] [%] | Vd [4] [L/kg] | EC50 [6] [µM] | SMILES | further results |
| --- | --- | --- | --- | --- | --- | --- |
| 0.012 | 5.2 | 53 | 14.3 | 0.0013 | Cc1cc(Cl)ccc1-c1cccc(COc2ccc([C@H](CC(=O)O)c3nnnn3C)cc2)c1 |  |
| 0.041 | 0.74 | 6.7 | 3.2 | 0.0038 | Cc1nc(-c2ccc(C(F)(F)F)cc2)sc1COc1ccc([C@H](CC(=O)O)c2nnnn2C)cc1 |  |
| 0.065 | 3.6 |  | 1.5 |  | Cc1nc(-c2ccc(C(F)(F)F)cc2)sc1COc1ccc([C@H](CC(=O)O)c2ncnn2C)cc1 |  |
| 0.069 |  |  |  |  | Cc1nc(-c2ccc(C(F)(F)F)cc2)sc1COc1ccc([C@H](CC(=O)O)c2ncco2)cc1 |  |
| 0.057 |  |  |  | 0.009 | Cc1nc(-c2ccc(C(F)(F)F)cc2)sc1COc1ccc([C@H](CC(=O)O)c2cnco2)cc1 |  |
| 0.073 | 3.7 |  | 0.64 | 0.016 | Cc1nc(-c2ccc(C(F)(F)F)cc2)sc1COc1ccc([C@H](CC(=O)O)c2nccn2C)cc1 |  |

Second part, the molecule before the results:

| SMILES | EC50 [1] [µM] | MRT [2] [h] | bioavailability [3] [%] | Vd [4] [L/kg] | EC50 [6] [µM] | further results |
| --- | --- | --- | --- | --- | --- | --- |
| CC#C[C@@H](CC(=O)O)c1ccc(OCc2cccc(-c3ccc(Cl)cc3C)c2)cc1 | 0.036 |  |  |  |  |  |
| CC#C[C@@H](CC(=O)O)c1ccc(OCc2cccc(-c3ccc(C(F)(F)F)cc3)c2)cc1 |  | 10 | 84 | 0.58 |  |  |
| Cc1cc(Cl)ccc1-c1cccc(COc2ccc([C@H](CC(=O)O)c3nccn3C)cc2)c1 | 0.033 | 2.4 | 48 | 0.73 | 0.0076 | clearance [5]: 5.17 mL/min/kg |
| Cc1cc(Cl)ccc1-c1cccc(COc2ccc([C@H](CC(=O)O)c3ncnn3C)cc2)c1 | 0.033 | 2.5 | 18 | 3.5 | 0.011 |  |
| Cc1nc(-c2ccc(C(F)(F)F)cc2)sc1COc1ccc([C@H](CC(=O)O)c2ccon2)cc1 | 0.036 |  | 77 | 0.68 | 0.0036 | half-life [7]: 5.6 h; half-life [8]: 14 h; bioavailability [9]: 65%; inhibition (INH) [10]: Not Active; Activity [11]: Not Active; inhibition (INH) [12]: Not Active; Vd [13]: 0.6 L/kg; half-life [14]: 5.3 h; inhibition in vivo at 10 mg/kg [15]: 19%; Kp at 3 h [16]: 0.02; concentration at 4 h [17]: 2000 nM; inhibition [18]: Active; Vd [19]: 0.35 L/kg; Cp(f) [20]: 8 nM; EC50 [21]: 0.055 µM; bioavailability [22]: 100% |
